According to patent US8076375B2 (priority 2005, dated 2011):
Several values for one entry are separate records, joined by “and”; a condition that tells them apart may be missing. Equal entries are not always repeated. Entries after “also recorded” stand apart in the source; their conditions may differ. Where two headings read alike, the source gives them in different places.

Tests used:
[1] = biological target: vaccinia virus B1 kinase (GST-B1) (Vaccinia virus, UniProt P20505); test: biochemical; type: biochemical; details: for inhibition at 10 µM: read-out: Inhibition of GST-B1 (of the control value); for remaining activity at 10 µM: read-out: Percent activity remaining at 10 μM, B1
[2] = test system: Lck (activated F505 form); type: biochemical; details: for Effect on Lck activity (in words): 10 μM
wild-type vaccinia virus = test: microbe, parasite or virus in culture; type: cell-based; details: for inhibition at 100 µM: Orthopoxvirus vaccinia, HeLa
[3] = mouse, in vivo, cited from earlier work
[4] = test system: ts2 and ts25 vaccinia virus mutants; type: cell-based
[5] = test system: vesicular stomatitis virus (VSV); type: cell-based

Row | Compound | IC50 [1] [nM] | inhibition at 10 µM [1] [%] | remaining activity at 10 µM [1] [%] | Percent Lck activity remaining [2] [%] | Effect on virus growth in HeLa cell culture (in words) (wild-type vaccinia virus) | Toxic effects in mammals [3] | Effect on growth of wild-type vaccinia virus (in words) (wild-type vaccinia virus) | Effect on Lck activity (in words) [2] | also measured
1 | O=C(O)C=Cc1c2ccc(=O)c(O)c-2oc2c(O)c(O)ccc12 [Compound 119911-V, 3-(4,5,6-trihydroxy-3-oxo-xanthen-9-yl)prop-2-enoic acid] | 3000 | ≥ 87 | 0 | 70 | no apparent effect | no toxic effects were observed | – | – | –
2 | 2-methylnaphthalene-bis(hexachlorocyclopentadiene) adduct [reference compound] | – | – | – | – | – | – | – | – | Effect on growth of ts2 and ts25 vaccinia virus, FIG. 1 (in words) [4]: did not inhibit; Effect on growth of ts2 or ts25 vaccinia virus (in words) [4]: no effect
3 | O=C(O)C=Cc1ccc[c]([Sb](=[O])([OH])[OH])c1 [Compound 13778-J, 3-(3-stibonophenyl)prop-2-enoic acid] | – | – | – | 79 ± 9 | – | – | inhibited the growth | – | Effect on B1 kinase activity in vitro (in words) [1]: inhibiting B1 almost not at all; also recorded: stimulated B1 in vitro
4 | O=C(O)CCc1c2ccc(=O)c(O)c-2oc2c(O)c(O)ccc12 [Compound 119915-Z, 3-(4,5,6-trihydroxy-3-oxo-xanthen-9-yl)propanoic acid] | 3000 | ≥ 87 | 1 | 78 | no apparent effect | no toxic effects were observed | – | – | –
5 | CC1C2C=CC1C(c1c3ccc(=O)c(O)c-3oc3c(O)c(O)ccc13)C2C(=O)O (stereo not drawn) [Compound 119913-X, 7-methyl-6-(4,5,6,-trihydroxy-3-oxo-xanthen-9-yl)-bicyclo[2.2.1]hetp-2-ene-5-carboxylic acid] | 2500 | ≥ 87 | 1 | 56 | – | no toxic effects were observed | inhibited the growth | minimally inhibited | Effect on growth of ts2 and ts25 mutant viruses (in words) [4]: reproducibly inhibited the growth
6 | O=C(O)c1cccc(/N=N/c2c(S(=O)(=O)O)ccc3c2C(=O)c2ccccc2C3=O)c1O [Compound 125908-P, 3-(9,10-dioxo-2-sulfo-anthracen-1-yl)diazenyl-2-hydroxy-benzoic acid] | – | – | 23 | 53 | no apparent effect | – | – | minimally inhibited | –
7 | CCc1c(O)c2c(c(O)c1C(C)=O)C(=O)c1c(cc(O)c(C(=O)O)c1C(=O)O)C2=O [Compound 170008-Y, 2-acetyl-7,8-bis(dihydroxymethylidene)-3-ethyl-9-hydroxy-anthracene-1,4,6,10-tetrone] | 2500 | ≥ 87 | 12 | 81 | no apparent effect | – | – | – | –
8 | O=C(O)C1CCCCC1c1c2ccc(=O)c(O)c-2oc2c(O)c(O)ccc12 (stereo not drawn) [Compound 119910-U, 2-(4,5,6-trihydroxy-3-oxo-xanthen-9-yl)cyclohexane-1-carboxylic acid] | 3500 | ≥ 87 | 0 | 59 | no apparent effect | no toxic effects were observed | – | minimally inhibited | –
9 | O=C1c2ccccc2C(=O)c2c(NC3CCCCC3)ccc(Nc3ccc(S(=O)(=O)O)cc3)c21 [Compound 128437-O, 4-(4-cyclohexylamino-9,10-dioxo-anthracen-1-yl)aminobenzenesulfonic acid] | – | – | 47 | 88 | – | – | inhibited the growth | – | –
10 | O=C(O)c1cc2c(cc1S(=O)(=O)O)C1C(C3C2C2(Cl)C(Cl)=C(Cl)C3(Cl)C2(Cl)Cl)C2(Cl)C(Cl)=C(Cl)C1(Cl)C2(Cl)Cl (stereo not drawn) [Compound 270718-R, 3-sulfo-2-naphthoic acid-bis(hexachlorocyclopentadiene) adduct] | 2500 | ≥ 87 | 12 ± 14 | 86 ± 46 | – | no toxic effects were observed | inhibited the growth | – | Effect on growth of ts2 and ts25 mutant viruses (in words) [4]: reproducibly inhibited the growth; Effect on growth of ts2 and ts25 vaccinia virus, FIG. 1 (in words) [4]: inhibited the growth; Inhibition of growth of ts2 and ts25, single experiment (FIG. 1) ([4]; 100 µM): 99%; Inhibition of growth of vaccinia virus over 24 hours ([4]; 100 µM): 86-99%; Activity under reduced-serum conditions relative to 10% serum (wild-type vaccinia virus): approximately four-fold; Effect on growth of wild-type vaccinia virus, FIG. 1 (in words) (wild-type vaccinia virus): inhibited the growth; Inhibition of growth of wild-type vaccinia virus (wild-type vaccinia virus): 90% and 99%; inhibition at 100 µM (wild-type vaccinia virus; read-out: Inhibition of growth of wild-type vaccinia virus, example of FIG. 1): 93%; inhibition at 100 µM (wild-type vaccinia virus; read-out: Inhibition of wild-type vaccinia virus): 84%; Effect on growth of VSV (in words) [5]: essentially no effect; Effect on growth of VSV, FIG. 1 (in words) [5]: not the growth of VSV; Inhibition of growth of VSV (in words) [5]: slight; Effect on growth of human Ramos B cells (human Ramos B cells): no effect; Toxicity in mice ([3]; 200 mg/kg): No toxicity
11 | Nc1nc(N)c(/N=N/c2ccc(C(=O)O)c(O)c2)c(N)n1 [Compound 117285-R, 2-hydroxy-4-(2,4,6-triaminopyrimidin-5-yl)diazenyl-benzoic acid] | 1000 | ≥ 87 | 4 ± 2 | 76 ± 25 | no apparent effect | – | – | – | –
12 | CN[C@@H]1C[C@H]2O[C@@](C)([C@@H]1OC)n1c3ccccc3c3c4c(c5c6ccccc6n2c5c31)C(=O)NC4 [staurosporine, reference compound] | – | – | – | – | – | – | – | – | Effect on B1 kinase activity in vitro (in words) [1]: inhibited B1 or F10 kinase
13 | O=S(=O)(O)c1ccc(NN(c2c(O)ccc3ccccc23)S(=O)(=O)O)cc1 [Compound 9600-Q, 4-[N′-(2-hydroxynaphthalen-1-yl)-N′-sulfo-hydrazino]benzenesulfonic acid] | – | – | 93 ± 2 | 53 ± 18 | no apparent effect | – | – | minimally inhibited | Effect on B1 kinase activity in vitro (in words) [1]: inhibiting B1 almost not at all
